Here are results for five molecules from DBAASP.

Values after ≈ are worked out from the molar mass of the structure shown. Bounds are passed on as bounds.

Some test systems named below: Candida krusei; Candida glabrata; Candida tropicalis; Candida albicans; Candida parapsilosis; Candida albicans C627; Escherichia coli DC2; Escherichia coli UB1005.
Experiment in all cases: ≥ marks a high value that may be exact or a test limit, other limits are often not marked, values filed in µg/mL are converted to µM
Test [1] concerns Listeria monocytogenes KCTC 3710.
In test [2] the test system is Bacillus subtilis KCTC 1998.
Test [3] deals with Pseudomonas aeruginosa 4007.
Test [4] has as its system Staphylococcus aureus ATCC 25923.
For test [5], the system named is Escherichia coli CCARM 1229.
Test [6] has as its system Pseudomonas aeruginosa 4891.
In test [7] the test system is Salmonella typhimurium KCTC 1926.
Test [8] concerns Escherichia coli CCARM 1238.
Test [9] deals with Trichosporon beigelii KCTC 7707.
The subject of test [10] is Escherichia coli ATCC 25922.
The subject of test [11] is Pseudomonas aeruginosa ATCC 27853.
For test [12], the system named is Staphylococcus aureus CCARM 3090.
In test [13] the test system is Staphylococcus aureus CCARM 3518.
The subject of test [14] is Candida albicans KCTC 7270.
Test [15] has as its system Candida albicans ATCC 10231.
Test [16] concerns Staphylococcus aureus C623.
The test system of test [17] is Pseudomonas aeruginosa K799.
For test [18], the system named is Aeromonas salmonicida 97-4.
The subject of test [19] is Aeromonas salmonicida 99-1.
Test [20] deals with Pseudomonas aeruginosa Z61.
Test [21] relates to Staphylococcus epidermidis C621.
For test [22], the system named is Salmonella enterica serovar typhimurium MS7953s.
In test [23] the test system is Escherichia coli CGSC 4908.
Test [24] relates to Salmonella enterica subsp. enterica serovar Typhimurium ATCC 14028s.

On to `CC[C@H](C)[C@H](NC(=O)CNC(=O)[C@H](CCC(N)=O)NC(=O)[C@H](CO)NC(=O)[C@@H](NC(=O)[C@H](CCCCN)NC(=O)[C@H](CCCCN)NC(=O)[C@H](CC(C)C)NC(=O)[C@H](C)NC(=O)[C@H](CC(N)=O)NC(=O)[C@H](CC(C)C)NC(=O)CN)C(C)C)C(=O)N[C@@H](Cc1cnc[nH]1)C(=O)N[C@@H](CCC(=O)O)C(=O)N[C@@H](C)C(=O)N[C@H](C(=O)N[C@@H](CCCCN)C(=O)N[C@@H](CC(C)C)C(=O)N[C@H](C(=O)N[C@@H](CC(N)=O)C(=O)N[C@@H](CC(N)=O)C(=O)N[C@@H](Cc1cnc[nH]1)C(=O)N[C@H](C(=O)N[C@@H](CCC(N)=O)C(N)=O)C(C)C)[C@@H](C)CC)[C@@H](C)CC` [GLNALKKVSQGIHEAIKLINNHVQ], for which the MIC in [1] is at least 32 µM; in test [2], at least 32 µM; in test [3], at least 64 µM; in test [4], 32 µM (≈ 84 µg/mL); in test [5] it was at least 32 µM; in [6] it was at least 64 µM. The MIC in test [7] is 16 µM (≈ 42 µg/mL); in [8], at least 32 µM; in test [9], at least 64 µM; in test [10] it was 16 µM (≈ 42 µg/mL); in test [11], 16 µM (≈ 42 µg/mL); in [12], at least 64 µM. Moreover, the MIC in [13] and in test [14] was at least 64 µM in each case.
`CC[C@H](C)[C@H](NC(=O)[C@@H](NC(=O)CNC(=O)[C@H](CCCN=C(N)N)NC(=O)[C@H](CCC(N)=O)NC(=O)[C@H](Cc1cnc[nH]1)NC(=O)[C@H](CC(C)C)NC(=O)[C@H](CCCN=C(N)N)NC(=O)[C@@H](NC(=O)[C@H](CC(C)C)NC(=O)[C@@H](NC(=O)[C@@H](NC(=O)[C@H](CC(C)C)NC(=O)[C@H](CC(C)C)NC(=O)[C@@H](N)C(C)C)C(C)C)[C@@H](C)O)[C@@H](C)O)C(C)C)C(=O)N[C@@H](Cc1ccc(O)cc1)C(=O)N[C@@H](CCCN=C(N)N)C(=O)N[C@@H](CCCCN)C(=O)N[C@@H](Cc1c[nH]c2ccccc12)C(=O)N[C@@H](CCCN=C(N)N)C(=O)N[C@@H](Cc1cnc[nH]1)C(=O)N[C@@H](Cc1ccccc1)C(=O)N[C@@H](CO)C(=O)NCC(=O)N[C@@H](CCCN=C(N)N)C(=O)N[C@@H](CCCCN)C(=O)N[C@@H](Cc1ccc(O)cc1)C(=O)N[C@@H](CCCN=C(N)N)C(=O)O` [VLLVTLTRLHQRGVIYRKWRHFSGRKYR]: the minimal inhibitory concentration (MIC) with Candida krusei was 25 µM (≈ 88.5 µg/mL); in the test with Candida glabrata it was at least 50 µM; against Candida tropicalis, 12.5 µM (≈ 44.3 µg/mL); against Candida albicans, 25 µM (≈ 88.5 µg/mL); in test [15], 25 µM (≈ 88.5 µg/mL); against Candida parapsilosis, 25 µM (≈ 88.5 µg/mL).
Regarding `CC[C@H](C)[C@H](NC(=O)CNC(=O)[C@H](CCC(N)=O)NC(=O)[C@H](Cc1ccccc1)NC(=O)[C@@H](NC(=O)[C@H](CCCCN)NC(=O)[C@H](CCCCN)NC(=O)[C@H](CC(C)C)NC(=O)[C@H](C)NC(=O)[C@H](CC(N)=O)NC(=O)[C@H](CC(C)C)NC(=O)[C@@H](N)Cc1c[nH]c2ccccc12)C(C)C)C(=O)N[C@@H](Cc1cnc[nH]1)C(=O)N[C@@H](CCC(=O)O)C(=O)N[C@@H](C)C(=O)N[C@H](C(=O)N[C@@H](CCCCN)C(=O)N[C@@H](CC(C)C)C(=O)N[C@H](C(=O)N[C@@H](CC(N)=O)C(=O)N[C@@H](CC(N)=O)C(=O)N[C@@H](Cc1cnc[nH]1)C(=O)N[C@H](C(=O)N[C@@H](CCC(N)=O)C(N)=O)C(C)C)[C@@H](C)CC)[C@@H](C)CC` [WLNALKKVFQGIHEAIKLINNHVQ], the MIC was at least 32 µM in test [1]; at least 32 µM in [2]; 16 µM (≈ 45 µg/mL) in test [3]; 32 µM (≈ 90 µg/mL) in [4]; 16 µM (≈ 45 µg/mL) in test [5]; 16 µM (≈ 45 µg/mL) in test [6]. Moreover, the MIC in test [7] is 16 µM (≈ 45 µg/mL); in test [8], 16 µM (≈ 45 µg/mL); in [9], at least 64 µM; in test [10], 16 µM (≈ 45 µg/mL); in test [11] it was 16 µM (≈ 45 µg/mL); in [12] it was at least 32 µM. For the same molecule, the minimum inhibitory concentration (MIC) was at least 32 µM in [13] and at least 64 µM in test [14].
Regarding `CC(=O)[C@H](CC(C)C)NC(=O)[C@H](Cc1ccc(O)cc1)NC(=O)[C@H](Cc1cnc[nH]1)NC(=O)[C@H](CC(=O)O)NC(=O)[C@@H](NC(=O)[C@H](C)NC(=O)[C@H](CC(C)C)NC(=O)CNC(=O)CNC(=O)[C@@H](NC(=O)[C@@H](NC(=O)[C@H](CCCCN)NC(=O)CNC(=O)[C@@H](NC(=O)[C@H](CCCCN)NC(=O)[C@H](CCCCN)NC(=O)[C@H](C)NC(=O)[C@H](CCCNC(=N)N)NC(=O)[C@H](CC(N)=O)NC(=O)[C@H](Cc1ccccc1)NC(=O)[C@H](Cc1c[nH]c2ccccc12)NC(=O)[C@H](CCCCN)NC(=O)[C@H](CCCCN)NC(=O)[C@H](Cc1c[nH]c2ccccc12)NC(=O)CN)C(C)C)[C@@H](C)O)C(C)C)C(C)C` [GWKKWFNRAKKVGKTVGGLAVDHYL], the MIC with Candida albicans C627 is 1.4 µM (≈ 4 µg/mL); in test [16] it was 5.6 µM (≈ 16 µg/mL); in [17], 1.4 µM (≈ 4 µg/mL); in test [18], 0.7 µM (≈ 2 µg/mL); in [19], 0.7 µM (≈ 2 µg/mL); in test [20] it was 0.35 µM (≈ 0.999 µg/mL). For the same molecule, the MIC was found to be 2.8 µM (≈ 7.99 µg/mL) in test [21]; 0.7 µM (≈ 2 µg/mL) in [22]; 0.7 µM (≈ 2 µg/mL) in the test with Escherichia coli DC2; 0.7 µM (≈ 2 µg/mL) in test [23]; 2.8 µM (≈ 7.99 µg/mL) in the test on Escherichia coli UB1005; 2.8 µM (≈ 7.99 µg/mL) in test [24].
In the case of `CC(C)C[C@H](NC(=O)[C@H](Cc1ccc(O)cc1)NC(=O)[C@H](C)NC(=O)[C@@H](NC(=O)[C@H](CC(C)C)NC(=O)[C@H](C)NC(=O)[C@H](C)NC(=O)[C@H](CCCCN)NC(=O)CNC(=O)[C@@H](NC(=O)[C@H](Cc1cnc[nH]1)NC(=O)[C@H](CCCCN)NC(=O)CNC(=O)[C@@H](NC(=O)[C@H](Cc1cnc[nH]1)NC(=O)[C@@H](NC(=O)[C@H](C)NC(=O)[C@H](CCCCN)NC(=O)[C@H](CCCCN)NC(=O)[C@H](Cc1ccccc1)NC(=O)[C@H](Cc1c[nH]c2ccccc12)NC(=O)[C@H](CCCCN)NC(=O)CNC(=O)[C@H](Cc1c[nH]c2ccccc12)NC(=O)[C@@H](N)CCCN=C(N)N)[C@@H](C)O)C(C)C)C(C)C)[C@@H](C)O)C(N)=O` [RWGKWFKKATHVGKHVGKAALTAYL], the minimal inhibitory concentration (MIC) against Candida albicans C627 turned out to be 5.61 µM (≈ 16 µg/mL); in test [16] it was 22.4 µM (≈ 64 µg/mL); in test [17] it was 1.4 µM (≈ 4 µg/mL); in test [18], 0.701 µM (≈ 2 µg/mL); in test [19], 1.4 µM (≈ 4 µg/mL); in test [20] it was 0.701 µM (≈ 2 µg/mL). The minimal inhibitory concentration (MIC) in test [21] is 22.4 µM (≈ 64 µg/mL); in test [22], 0.701 µM (≈ 2 µg/mL); against Escherichia coli DC2, 1.4 µM (≈ 4 µg/mL); in test [23], 1.4 µM (≈ 4 µg/mL); in the test with Escherichia coli UB1005 it was 1.4 µM (≈ 4 µg/mL); in test [24], 2.8 µM (≈ 8 µg/mL).
